From PubChem BioAssay AID1919015 (Molecular Pharmacology Branch, DTP, NCI, 2023) come the findings set out here.

The experiment relates to OVCAR-5 complex spheroids with HUVEC/MSC, viability, % test/control. The experiment is described as follows: Anticancer human tumor OVCAR-5 cell line growth inhibition [AhR].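 As to all read-outs here: spheroids exposed to compounds for 7 days.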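 As to viability, T/C: 100% = DMSO vehicle control wells.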 The settings on record: for viability, T/C: stronger effect = lower value. From the text: Multicellular complex tumor spheroid response to aryl hydrocarbon receptor antagonists in combination with a variety of drugs and investigational agents in selected tumor cell lines
The current study was undertaken to assess response to aryl hydrocarbon receptor antagonists in combination with standard-of-care drugs and investigational agents in solid tumor complex spheroid models. Complex spheroids include a stromal component modeled by human endothelial cells (HUVEC) and fibroblasts modeled by human mesenchymal stem cells (MSCs). The concentration ranges selected for each drug and investigational agent were based upon clinically achievable concentrations if the clinical Cmax of the agent was known.
Compounds. The drugs and investigational agents: BAY 2416964 (NSC825713), GNF351 (NSC835774), CH-223191 (NSC835775), CPI-455 (NSC825282), aza-TdCyd (NSC777586), decitabine (NSC127716), belinostat (NSC758774), entinostat (NSC756642), pevonedistat (NSC761192), tazemetostat (NSC777109), talazoparib (NSC765396), olaparib (NSC753686), selinexor (NSC780203), nedisertib (M3814, NSC802822), bortezomib (NSC756655), venetoclax (NSC766270), doxorubicin (NSC123127), elimusertib (BAY189344, NSC800525), ceralasertib (AZD6738, NSC777638), TAK-243 (NSC785004), alisertib (NSC759677), etoposide (NSC141540), topotecan (NSC609699), eribulin (NSC707389), gemcitabine (NSC613327), carboplatin (NSC241240), cisplatin (NSC119875), and SN-38 (NSC673596) were obtained from the National Cancer Institute (NCI) Developmental Therapeutics Program Chemical Repository (32). The FDA-approved anticancer drug set is available from the Developmental Therapeutics Program at https://dtp.cancer.gov/organization/dscb/obtaining/available plates.htm. […] The stock solutions were prepared in dimethyl sulfoxide (DMSO, Sigma-Aldrich, St. Louis, MO, cat. D2650), except for the platinum compounds which were prepared in saline (Quality Biological, Gaithersburg, MD, cat. 114-055-101), at 800-fold the tested concentration and stored at -70 degrees C prior to their use. All drugs and investigational agents were tested over a range starting from a high concentration at or near the clinical Cmax and decreasing in half-log increments. If the clinical Cmax for an agent had not been determined, the highest concentration tested was 10 microM (Table 1).
Cell Culture. All cells were maintained in an incubator at 37 degrees C and 5% CO2 with 95% humidity. The PDC lines were cultured according to standard operating procedures established by the NCI PDMR (https://pdmr.cancer.gov). Briefly, all PDCs were thawed and cultured in Matrigel-coated flasks prepared with a working solution of 1X Ham's F-12 nutrient mix, without supplementation (Invitrogen, Waltham, MA, cat. 11765054), 100 U/mL penicillin-streptomycin (Invitrogen, cat. 15140122), and 2.5% Matrigel (Corning Inc., Corning, NY, cat. 354248) for the first three passages. All PDCs were cultured in complete DMEM/F-12 media containing advanced DMEM/F-12 (Invitrogen, cat. 12634028), 4.9% defined fetal bovine serum, heat inactivated (HyClone Laboratories Inc., Logan, UT, cat. SH30070.03HI), 389 ng/mL hydrocortisone (Sigma-Aldrich, cat. H4001), 9.7 ng/mL human EGF recombinant protein (Invitrogen, cat. PHG0313), 23.4 microg/mL adenine (Sigma-Aldrich, cat. A2786), 97.3 U/mL penicillin-streptomycin (Invitrogen, cat. 15140122), 1.9 mM L-glutamine (Invitrogen, cat. 25030081), and 9.7 microM Y-27632 dihydrochloride (Tocris Bioscience, Bristol, United Kingdom, cat. 1254). The PDCs were cultured in complete DMEM/F12 media without 10 microM Y-27632 dihydrochloride for at least two passages prior to the screen. The established cell lines NCI-H1341 and […] were cultured in DMEM/F-12, HEPES (Invitrogen, cat. 11330032), 5% defined fetal bovine serum (HyClone Laboratories Inc., cat. SH30070.03), ITS premix universal culture supplement [insulin (5 microg/mL), transferrin (5 microg/mL), and selenious acid (5 ng/mL)] […]

Structures are written as SMILES. Values joined by “and” are separate entries in the source; they are usually repeats but may differ in a detail not shown here. Equal entries are not always repeated.

Take `CCN(c1cc(-c2ccc(CN3CCOCC3)cc2)cc(C(=O)NCc2c(C)cc(C)[nH]c2=O)c1C)C1CCOCC1` + Cc1ccccc1N=Nc1ccc(NC(=O)c2ccnn2C)c(C)c1: the IC50 is more than 3 µM (curve of first compound, second compound 0.1 µM); more than 3 µM (curve of first compound, second compound 0.316 µM); more than 3 µM (curve of first compound, second compound 1 µM); more than 3 µM (curve of first compound, second compound 3.16 µM); more than 3 µM (curve of first compound, second compound 10 µM). Moreover, the viability, T/C runs as follows: (second compound 0.1 µM, first compound 0.00949 µM) 105%; (second compound 0.1 µM, first compound 0.03 µM) 106%; (second compound 0.1 µM, first compound 0.0949 µM) 102%; (second compound 0.1 µM, first compound 0.3 µM) 101%; (second compound 0.1 µM, first compound 0.949 µM) 95%; (second compound 0.1 µM, first compound 3 µM) 101%. Moreover, the viability, T/C reads like this: (second compound 0.316 µM, first compound 0.00949 µM) 107%; (second compound 0.316 µM, first compound 0.03 µM) 109%; (second compound 0.316 µM, first compound 0.0949 µM) 107%; (second compound 0.316 µM, first compound 0.3 µM) 102%; (second compound 0.316 µM, first compound 0.949 µM) 102%; (second compound 0.316 µM, first compound 3 µM) 103%. In addition, the viability, T/C reads like this: (second compound 1 µM, first compound 0.00949 µM) 112%; (second compound 1 µM, first compound 0.03 µM) 110%; (second compound 1 µM, first compound 0.0949 µM) 111%; (second compound 1 µM, first compound 0.3 µM) 115%; (second compound 1 µM, first compound 0.949 µM) 107%; (second compound 1 µM, first compound 3 µM) 110%. The viability, T/C is 115% (second compound 3.16 µM, first compound 0.00949 µM); 114% (second compound 3.16 µM, first compound 0.03 µM); 115% (second compound 3.16 µM, first compound 0.0949 µM); 109% (second compound 3.16 µM, first compound 0.3 µM); 109% (second compound 3.16 µM, first compound 0.949 µM); 112% (second compound 3.16 µM, first compound 3 µM). Besides, the viability, T/C by setting is: (second compound 10 µM, first compound 0.00949 µM) 106%; (second compound 10 µM, first compound 0.03 µM) 103%; (second compound 10 µM, first compound 0.0949 µM) 104%; (second compound 10 µM, first compound 0.3 µM) 105%; (second compound 10 µM, first compound 0.949 µM) 99.9%; (second compound 10 µM, first compound 3 µM) 98.2%.

Consider `CC(C)c1c(-c2ccccc2)nc2c(C#N)c[nH]n2c1=O`, for which the viability, T/C (compound 0.0316 µM) is 103% and 100% and 101%; the viability, T/C (compound 0.1 µM) was 103% and 99.8% and 106%; the viability, T/C (compound 0.316 µM) was 104% and 101% (2×); the viability, T/C (compound 1 µM) was 105% and 104% and 101%; the viability, T/C (compound 3.16 µM) is 105% (2×) and 103%; the viability, T/C (compound 10 µM) is 109% and 106% (2×). Moreover, the IC50 (curve of compound) was more than 10 µM.

For orientation: IC50 means the point on the concentration scale where inhibition reaches its midpoint. One may read the viability, T/C as the ratio of treated to control.
